Measured values taken from patent US5817646A, “Polar lipid composition of plant origin” (Laboratoires Inocosm, priority 1991, dated 1998).

Target: T1, human leukocytic elastase (HLE) (Homo sapiens, UniProt P08246)
T1 sequence (P08246 30-267): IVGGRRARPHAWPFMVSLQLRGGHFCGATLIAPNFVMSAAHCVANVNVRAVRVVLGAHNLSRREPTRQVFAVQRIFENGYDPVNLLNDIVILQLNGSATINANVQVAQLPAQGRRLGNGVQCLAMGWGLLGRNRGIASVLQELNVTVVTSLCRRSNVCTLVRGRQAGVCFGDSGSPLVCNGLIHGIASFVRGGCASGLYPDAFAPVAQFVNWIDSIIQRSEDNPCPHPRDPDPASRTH
Experiment: Inhibition of human leukocytic elastase, kinetics of p-nitroaniline release at 410 nm
Format: biochemical
Settings: read-out: percentage of inhibition of the anti-elastase activity after 10 min
Procedure: A test to ascertain the activity of a polar lipid mixture in accordance with the invention on the inhibition of a specific enzyme, human leukocytic elastase (HLE), was carried out at the Connective Tissue Laboratory of the CNRS at Cretail (France). HLE is able to destroy elastin and therefore cause cell aging. HLE also detrimentally effects the arterial walls.
The activity of the mixture in accordance with the invention was compared with that of oleic acid, the reference substance.
This test measures the inhibition of the enzymatic activity by different preparations tested by following the kinetics at 410 nm of the degradation of a substrate, S, corresponding essentially to elastin: Me-O-Suc-Ala2 -Pro-Val-pNa(N-Methoxy-succinyl-Ala-Ala-Pro-Val-p-Nitroanilide). In this test, changes in the concentration of p-Nitroaniline, released due to the effect of the activity of HLE on the substrate, S, is measured over time.
In order to carry out these tests:
either 0.1M Tris-Cl+0.01% Triton X-100 at pH 8
was used as the reaction buffer, B. […]
Spectrophotometer readings were taken at 410 nm relative to the p-Nitroaniline concentration and the results obtained were then transferred to Curves 1 to 5, which correspond to the cell samples of the same numbering. […]
On each of these curves, the time in min was recorded on the abscissa and the optical deviation, OD, read at 410 nm, was recorded on the ordinate. […]

`CCCCCCCC/C=C\CCCCCCCC(=O)O` [Reference oleic acid, oleic acid] showed an inhibition at 0.1 µg/mL (oleic acid at 0.1 μg/ml) of 36% and an inhibition at 1 µg/mL (oleic acid at 1.0 μg/ml) of 84%.
